From US20210299079A1, “MONOMETHYL FUMARATE-CARRIER CONJUGATES AND METHODS OF THEIR USE” (Flagship Pioneering Innovations V, Inc., priority 2018, published 2021)

Columns and labels:
IL-8 = experiment: Neutrophil Chemokine Production Assay: IL-8; format: cell-based; details: human neutrophils, 12 h
Summary of the method: (§1)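 Neutrophils were isolated from human blood by Histopaque-1077 separation and RBC lysis, then plated at 2.0×10^5 cells/well in RPMI complete. Cells were stimulated with LPS (10 μL of a 2 μg/mL solution) for 12 h at 37 °C. Supernatant chemokines were measured by Luminex multiplex, averaging three data points from two donors.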

MIP-1α = experiment: Neutrophil Chemokine Production Assay: MIP-1α; format: cell-based; details: human neutrophils, 12 h
Summary of the method: as §1

MIP-1β = experiment: Neutrophil Chemokine Production Assay: MIP-1β; format: cell-based; details: human neutrophils, 12 h
Summary of the method: as §1

AhR = target: T1, AhR (Homo sapiens, UniProt P35869); experiment: AhR Activation in Caco-2 Cells Through CYP1A1 mRNA Expression; details: overnight
T1 sequence (P35869 11-848): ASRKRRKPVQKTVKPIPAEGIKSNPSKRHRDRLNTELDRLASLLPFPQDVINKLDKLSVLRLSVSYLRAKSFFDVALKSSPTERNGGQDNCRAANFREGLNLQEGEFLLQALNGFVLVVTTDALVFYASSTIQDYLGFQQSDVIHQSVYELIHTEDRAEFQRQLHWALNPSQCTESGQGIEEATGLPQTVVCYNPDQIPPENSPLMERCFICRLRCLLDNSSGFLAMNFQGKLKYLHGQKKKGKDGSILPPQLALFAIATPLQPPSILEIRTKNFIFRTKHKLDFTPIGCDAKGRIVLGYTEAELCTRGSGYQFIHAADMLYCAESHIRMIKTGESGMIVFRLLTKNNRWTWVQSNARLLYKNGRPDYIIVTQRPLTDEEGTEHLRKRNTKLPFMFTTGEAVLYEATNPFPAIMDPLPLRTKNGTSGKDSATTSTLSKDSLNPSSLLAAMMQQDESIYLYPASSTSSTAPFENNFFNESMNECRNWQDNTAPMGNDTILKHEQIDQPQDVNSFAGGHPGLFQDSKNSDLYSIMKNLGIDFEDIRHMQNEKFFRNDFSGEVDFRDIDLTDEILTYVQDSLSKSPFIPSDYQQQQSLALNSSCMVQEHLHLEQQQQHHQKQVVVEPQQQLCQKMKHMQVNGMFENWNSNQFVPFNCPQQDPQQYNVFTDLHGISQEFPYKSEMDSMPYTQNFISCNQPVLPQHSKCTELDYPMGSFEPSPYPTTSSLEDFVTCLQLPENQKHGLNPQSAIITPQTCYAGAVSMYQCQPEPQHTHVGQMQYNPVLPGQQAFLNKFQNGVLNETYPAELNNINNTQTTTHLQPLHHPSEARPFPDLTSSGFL
Description: Caco-2 cells from American Type Culture Collection (ATCC) were plated in a sterile tissue culture treated 96-well plate (ThermoFisher) at 8.0×10^5 cells per well, and grown overnight at 37° C., 5% CO2 in DMEM complete (Gibco) in order to achieve confluence. After the incubation medium was aspirated off of the Caco-2 monolayers, tissues were then washed with 200 μL of warmed PBS solution, and subsequently 190 μL of pre-warmed growth medium was added to each well. Compounds of interest were diluted at a 20× concentration in growth medium containing 2% DMSO, and 10 μL of compound solutions were added to respective wells in triplicate. Compounds where incubated overnight at 37° C., 5% CO2. 2-(1′H-indole-3′-carbonyl)-thiazole-4-carboxylic acid methyl ester (ITE) was used as the positive control for AhR activation at 1 and 100 μM concentrations. At the end of the incubation, medium was aspirated off of the Caco-2 cells, and washed with 100 μL of cold PBS solution. RNA was extracted via the TaqMan™ Gene Expression Cells-to-CT™ Kit (ThermoFisher) according to the manufacturer's protocol. The QuantStudio 6 Flex (Applied Biosciences) was used to analyze mRNA levels of CYP1A1 using GAPDH as the endogenous control. TaqMan™ probe sets for both genes were acquired from ThermoFisher. Samples were run in triplicate and data was analyzed using the QuantStudio software and reported as linear (Table 6) and log 2(ΔΔCT) values. Statistical analysis was performed using a two-tailed t-test comparing CYP1A1 levels in the presence of each individual compound to the vehicle negative control.

CCC(=O)O [propionate]
% IL-8 (Vehicle + LPS = 100%) (IL-8; Conc. 500.0 μM): − (− = >90% Vehicle)
% IL-8 (Vehicle + LPS = 100%) (IL-8; Conc. 1000.0 μM): ++ (++ = <70% Vehicle)
% IL-8 (Vehicle + LPS = 100%) (IL-8; Conc. 3000.0 μM): +++ (+++ = <50% Vehicle)
% MIP-1α (Vehicle + LPS = 100%) (MIP-1α; Conc. 500.0 μM): +++ (+++ = <50% Vehicle)
% MIP-1α (Vehicle + LPS = 100%) (MIP-1α; Conc. 1000.0 μM): +++ (+++ = <50% Vehicle)
% MIP-1α (Vehicle + LPS = 100%) (MIP-1α; Conc. 3000.0 μM): +++ (+++ = <50% Vehicle)
% MIP-1β (DMSO + LPS = 100%) (MIP-1β; Conc. 500.0 μM): +++ (+++ = <50% Vehicle)
% MIP-1β (DMSO + LPS = 100%) (MIP-1β; Conc. 1000.0 μM): +++ (+++ = <50% Vehicle)
% MIP-1β (DMSO + LPS = 100%) (MIP-1β; Conc. 3000.0 μM): +++ (+++ = <50% Vehicle)
Average CYP1A1 mRNA levels (AhR; Conc. 1000.0 μM): − (− = <2-fold Vehicle)
Average CYP1A1 mRNA levels (AhR; Conc. 3000.0 μM): − (− = <2-fold Vehicle)
